Experimental data taken from PMC12693701, “Glucosinolate-Derived Metabolites from Barbarea vulgaris (Brassicaceae): Evaluation of Antimicrobial, Antioxidant, and Anti-Inflammatory Potentials” (Molecules, 2025).
≈ marks a conversion by molar mass, not a printed value.

Experiments:
[1] = system: B. subtilis ATCC 6633; assay: Microdilution MIC/MMC with resazurin; type: cell-based, Bacillus subtilis; details: B. subtilis ATCC 6633, compounds 1–8; for MIC: Bacillus subtilis, ATCC6633, read-out: MIC
Method: (§1) The antimicrobial activity was evaluated against 15 microorganisms. This included 11 bacterial strains: four standard strains (Staphylococcus aureus ATCC 25923, Bacillus subtilis ATCC 6633, Bacillus pumilus NCTC 8241, and Escherichia coli ATCC 25922) and six clinical or environmental isolates (Staphylococcus aureus, Escherichia coli, Bacillus cereus, Proteus mirabilis, Salmonella enterica, and Klebsiella pneumoniae). One probiotic strain, Bifidobacterium animalis subsp. lactis was tested. In addition, four fungal strains, Candida albicans ATCC 10231, Trichoderma viride ATCC 13233, Aspergillus flavus ATCC 9170, and Fusarium solani ATCC 11712 were tested. The bacterial strains were kept in glycerol stock at −80 °C and the fungal strains in paraffin oil stock at 4 °C.
(§2) Bacterial and yeast suspensions were prepared using the direct colony method, as previously described by Andrews. The turbidity of the initial suspensions was adjusted to match the 0.5 McFarland standard using a densitometer (Biosan, Riga, Latvia), corresponding to approximately 10^8 colony-forming units (CFU)/mL for bacterial cells and 10^6 CFU/mL for yeast cells. Subsequently, 1:100 dilutions of the initial suspensions were prepared in sterile 0.85% saline. Fungal spore suspensions were obtained by gently harvesting spores from agar slopes containing mature mycelial growth. The collected spore suspensions were then diluted 1:1000 in sterile 0.85% saline prior to use.
(§3) Antimicrobial activity was evaluated by determining the minimum inhibitory concentration (MIC) and minimum microbicidal concentration (MMC) using the microdilution plate method with resazurin as an indicator [28]. In the 96-well plates, 100 μL of Mueller–Hinton broth (Torlak, Belgrade, Serbia) for bacterial testing and Sabouraud broth (Torlak, Belgrade, Serbia) for fungal testing were dispensed into each well. The compounds under investigation were initially dissolved in a 10% dimethyl sulfoxide (DMSO) solution, followed by dilution in sterile distilled water, resulting in a working compound solution containing 1% DMSO. A 100 μL aliquot of the stock solution of the tested compound was added to the first row, and twofold serial dilutions were then carried out using a multichannel pipette. The resulting concentration range was from 5 to 0.039 mg/mL. The inoculated microtiter plates were incubated at 37 °C for 24 h for bacteria, at 28 °C for 48 h for yeasts, and at 28 °C for 72 h for molds.
(§4) Each test also included growth control and sterility control. All tests were conducted in duplicate. MIC was defined as the lowest concentration of tested compounds that prevented resazurin color change from blue to pink. For molds, MIC values of the tested compound were determined as the lowest concentration that inhibited visible mycelia growth. MMC was determined by inoculation of the nutrient agar medium by plating […] of samples from wells, where no indicator color change was recorded. At the end of the incubation period, the lowest concentration with no growth (no colony) was defined as MMC.
(§5) Doxycycline, ampicillin and amphotericin B (- Sigma-Aldrich, St. Louis, MO, USA) and ketoconazole (Hemofarm A.D., Vršac, Serbia) were dissolved in a nutrient liquid medium. Doxycycline is a broad-spectrum antibiotic effective against both aerobic and anaerobic Gram-positive and Gram-negative bacteria. Ampicillin, a beta-lactam antibiotic, primarily targets Gram-positive bacteria but also some Gram-negative strains. Amphotericin B is an antifungal drug often used for serious systemic fungal infections and is one of the effective treatments for fungal infections caused by Aspergillus sp. Ketoconazole is an antifungal agent used to inhibit the growth of Candida species.

[2] = system: A. flavus ATCC 9170; assay: Microdilution MIC/MMC; type: cell-based, Aspergillus flavus; details: A. flavus ATCC 9170, compounds 1–8; for MIC: Aspergillus flavus, ATCC9170, read-out: MIC
Method: as §1, §2, §3, §4, §5

[3] = system: E. coli; assay: Microdilution MIC/MMC with resazurin; type: cell-based, Escherichia coli; details: E. coli isolate, compounds 1–8; for MIC: Escherichia coli, read-out: MIC
Method: as §1, §2, §3, §4, §5

[4] = system: E. coli ATCC 25922; assay: Microdilution MIC/MMC with resazurin; type: cell-based, Escherichia coli; details: E. coli ATCC 25922, compounds 1–8; for MIC: Escherichia coli, ATCC25922, read-out: MIC
Method: as §1, §2, §3, §4, §5

[5] = system: K. pneumoniae; assay: Microdilution MIC/MMC with resazurin; type: cell-based, Klebsiella pneumoniae; details: K. pneumoniae, compounds 1–8; for MIC: Klebsiella pneumoniae, read-out: MIC
Method: as §1, §2, §3, §4, §5

[6] = system: S. aureus; assay: Microdilution MIC/MMC with resazurin; type: cell-based, Staphylococcus aureus; details: S. aureus isolate, compounds 1–8; for MIC: Staphylococcus aureus, read-out: MIC
Method: as §1, §2, §3, §4, §5

[7] = system: S. aureus ATCC 25923; assay: Microdilution MIC/MMC with resazurin; type: cell-based, Staphylococcus aureus; details: S. aureus ATCC 25923, compounds 1–8; for MIC: Staphylococcus aureus, ATCC25923, read-out: MIC
Method: as §1, §2, §3, §4, §5

[8] = system: S. enterica; assay: Microdilution MIC/MMC with resazurin; type: cell-based, Salmonella enterica; details: compounds 1–8; for MIC: Salmonella enterica
Method: as §1, §2, §3, §4, §5

[9] = system: B. pumilus NCTC 8241; assay: Microdilution MIC/MMC with resazurin; type: cell-based, Bacillus pumilus; details: B. pumilus NCTC 8241, compounds 1–8; for MIC: Bacillus pumilus, NCTC8241, read-out: MIC
Method: as §1, §2, §3, §4, §5

[10] = system: B. animalis subsp. lactis; assay: Microdilution MIC/MMC with resazurin; type: cell-based, Bifidobacterium animalis subsp. lactis; details: B. animalis subsp. lactis, compounds 1–8; for MIC: Bifidobacterium animalis, read-out: MIC
Method: as §1, §2, §3, §4, §5

[11] = system: P. mirabilis; assay: Microdilution MIC/MMC with resazurin; type: cell-based, Proteus mirabilis; details: P. mirabilis, compounds 1–8; for MIC: Proteus mirabilis, read-out: MIC
Method: as §1, §2, §3, §4, §5

[12] = ABTS radical scavenging assay; details: mean ± SD
Method: The ABTS radical cation solution was prepared following the previously described protocol. Different concentrations of the analyzed samples were prepared in DMSO. The test samples were prepared following the specified procedure: 20 µL of sample was combined with 980 µL of methanol, followed by the addition of 1000 µL of ABTS solution. Absorbance was measured at 734 nm. All measurements were performed in triplicate.

[13] = system: F. solani ATCC 11712; assay: Microdilution MIC/MMC; type: cell-based, Fusarium solani; details: F. solani ATCC 11712, compounds 1–8; for MIC: Fusarium solani, ATCC11712, read-out: MIC
Method: as §1, §2, §3, §4, §5

[14] = system: B. cereus; assay: Microdilution MIC/MMC with resazurin; type: cell-based, Bacillus cereus; details: B. cereus, compounds 1–8; for MIC: Bacillus cereus, read-out: MIC
Method: as §1, §2, §3, §4, §5

| Structure (SMILES) | MMC [1] [mg/mL] | MIC [1] [µg/mL] | MMC [2] [mg/mL] | MIC [2] [µg/mL] | MMC [3] [mg/mL] | MIC [3] [µg/mL] | MMC [4] [mg/mL] | MIC [4] [µg/mL] | MMC [5] [mg/mL] | MIC [5] [µg/mL] | MMC [6] [mg/mL] | MIC [6] [µg/mL] | MMC [7] [mg/mL] | MIC [7] [µg/mL] | MIC [8] [µg/mL] | MMC [9] [mg/mL] | MIC [9] [µg/mL] | MMC [10] [mg/mL] | MIC [10] [µg/mL] | MMC [11] [mg/mL] | also measured |
| --- | --- | --- | --- | --- | --- | --- | --- | --- | --- | --- | --- | --- | --- | --- | --- | --- | --- | --- | --- | --- | --- |
| O=C1NCC(c2ccccc2)O1 (centres unmarked) [Compound 7, 5-Phenyl-1,3-oxazolidin-2-one] | 5 | 5000 (≈ 30.6 mM) | 2.5 | 2500 (≈ 15.3 mM) | 2.5 | 1250 (≈ 7.66 mM) | 2.5 | 1250 (≈ 7.66 mM) | 2.5 | 2500 (≈ 15.3 mM) | 5 | 2500 (≈ 15.3 mM) | 5 | 5000 (≈ 30.6 mM) | 1250 (≈ 7.66 mM) | 5 | 5000 (≈ 30.6 mM) | 5 | 2500 (≈ 15.3 mM) | 2.5 | MMC [8]: 2.5 mg/mL; MIC [11]: 2500 µg/mL (≈ 15.3 mM); ABTS Scavenging Ability ([12]; 25 µM): 1.3 ± 0.1%; ABTS Scavenging Ability ([12]; 50 µM): 2.7 ± 1.0%; ABTS Scavenging Ability ([12]; 100 µM): 3.9 ± 0.4%; MMC [13]: 2.5 mg/mL; MIC [13]: 2500 µg/mL (≈ 15.3 mM); MMC [14]: 5 mg/mL; MIC [14]: 5000 µg/mL (≈ 30.6 mM) |
| CSC(=S)NCCc1ccc(O)cc1 [Compound 2, methyl-4-hydroxyphenylethyl dithiocarbamate] | 1.25 | 78 (≈ 0.343 mM) | 0.625 | 312 (≈ 1.37 mM) | 0.312 | 312 (≈ 1.37 mM) | 0.312 | 312 (≈ 1.37 mM) | 0.625 | 625 (≈ 2.75 mM) | 0.312 | 312 (≈ 1.37 mM) | 0.156 | 156 (≈ 0.686 mM) | 625 (≈ 2.75 mM) | 0.156 | 156 (≈ 0.686 mM) | 0.625 | 78 (≈ 0.343 mM) | 0.312 | MIC [11]: 156 µg/mL (≈ 0.686 mM); ABTS Scavenging Ability ([12]; 25 µM): 7.6 ± 1.0%; ABTS Scavenging Ability ([12]; 50 µM): 13.4± 0.9%; ABTS Scavenging Ability ([12]; 100 µM): 13.4 ± 0.8%; MMC [13]: 0.234 mg/mL; MIC [13]: 156 µg/mL (≈ 0.686 mM); MMC [14]: 0.625 mg/mL; MIC [14]: 156 µg/mL (≈ 0.686 mM) |
| S=C1NCC(c2ccccc2)O1 (racemic) [Compound 4, rac-5-Phenyl-1,3-oxazolidine-2-thione] | 5 | 2500 (≈ 13.9 mM) | >5 | > 5000 | 5 | 2500 (≈ 13.9 mM) | 5 | 2500 (≈ 13.9 mM) | 5 | 2500 (≈ 13.9 mM) | 1.25 | 1250 (≈ 6.97 mM) | 2.5 | 1250 (≈ 6.97 mM) | 2500 (≈ 13.9 mM) | 2.5 | 1250 (≈ 6.97 mM) | 5 | 1250 (≈ 6.97 mM) | 5 | MMC [8]: 5 mg/mL; MIC [11]: 2500 µg/mL (≈ 13.9 mM); ABTS Scavenging Ability ([12]; 25 µM): 0.9 ± 0.1%; ABTS Scavenging Ability ([12]; 50 µM): 1.6 ± 0.9%; ABTS Scavenging Ability ([12]; 100 µM): 2.5 ± 0.3%; MMC [13]: 3.75 mg/mL; MIC [13]: 2500 µg/mL (≈ 13.9 mM); MMC [14]: 5 mg/mL; MIC [14]: 5000 µg/mL (≈ 27.9 mM) |
| O=C(O)C1CSC(=S)N1 (centres unmarked) [Compound 3, 2-Thioxothiazolidine-4-carboxylic Acid] | 5 | 2500 (≈ 15.3 mM) | 5 | 5000 (≈ 30.6 mM) | 5 | 1250 (≈ 7.66 mM) | 1.25 | 625 (≈ 3.83 mM) | 2.5 | 2500 (≈ 15.3 mM) | 0.312 | 156 (≈ 0.956 mM) | 0.625 | 625 (≈ 3.83 mM) | 2500 (≈ 15.3 mM) | 0.625 | 625 (≈ 3.83 mM) | 2.5 | 625 (≈ 3.83 mM) | 2.5 | MMC [8]: 2.5 mg/mL; MIC [11]: 2500 µg/mL (≈ 15.3 mM); ABTS Scavenging Ability ([12]; 25 µM): 1.2 ± 0.3%; ABTS Scavenging Ability ([12]; 50 µM): 1.9 ± 1.2%; ABTS Scavenging Ability ([12]; 100 µM): 2.6 ± 0.7%; MMC [13]: 0.625 mg/mL; MIC [13]: 625 µg/mL (≈ 3.83 mM); MMC [14]: 2.5 mg/mL; MIC [14]: 2500 µg/mL (≈ 15.3 mM) |
| O=C1NCC(c2ccccc2)S1 (centres unmarked) [Compound 6, 5-phenyl-1,3-thiazolidin-2-one] | >5 | > 5000 | >5 | > 5000 | >5 | > 5000 | >5 | > 5000 | >5 | > 5000 | >5 | > 5000 | >5 | > 5000 | > 5000 | >5 | > 5000 | >5 | > 5000 | >5 | MMC [8]: >5 mg/mL; MIC [11]: > 5000 µg/mL; ABTS Scavenging Ability ([12]; 25 µM): 2.6 ± 0.7%; ABTS Scavenging Ability ([12]; 50 µM): 3.9 ± 1.2%; ABTS Scavenging Ability ([12]; 100 µM): 5.1 ± 0.9%; MMC [13]: >5 mg/mL; MIC [13]: > 5000 µg/mL; MMC [14]: >5 mg/mL; MIC [14]: > 5000 µg/mL |
| S=C1NC[C@H](c2ccccc2)O1 [Compound 5, (S)-5-phenyl-1,3-oxazolidine-2-thione] | >5 | > 5000 | >5 | > 5000 | 5 | 5000 (≈ 27.9 mM) | 5 | 5000 (≈ 27.9 mM) | 5 | 5000 (≈ 27.9 mM) | >5 | > 5000 | >5 | 5000 (≈ 27.9 mM) | 5000 (≈ 27.9 mM) | 5 | 2500 (≈ 13.9 mM) | 5 | 1250 (≈ 6.97 mM) | 5 | MMC [8]: >5 mg/mL; MIC [11]: 5000 µg/mL (≈ 27.9 mM); ABTS Scavenging Ability ([12]; 25 µM): 6.6 ± 0.2%; ABTS Scavenging Ability ([12]; 50 µM): 12.3 ± 0.8%; ABTS Scavenging Ability ([12]; 100 µM): 19.1 ± 0.6%; MMC [13]: >5 mg/mL; MIC [13]: 5000 µg/mL (≈ 27.9 mM); MMC [14]: >5 mg/mL; MIC [14]: > 5000 µg/mL |
